Results on 14 compounds are retold here after patent US20230348442A1, “GALECTIN-3 INHIBITING 2-HYDROXYCYCLOALKANE-1-CARBAMOYL DERIVATIVES” (Idorsia Pharmaceuticals Ltd, priority 2020, published 2023).

In general, IC50 refers to the midpoint of a concentration-inhibition curve.

The target in the assay is human Gal-3 (hGal-3) (Homo sapiens (Human), UniProt P17931). The assay is described as follows: competitive binding assay: binding of biotinylated hGal-3 to microplate-adsorbed asialofetuin (ASF), spectrophotometric. As to conditions: Activity on hGal-3; mean values of several measurements. A digest of the protocol: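 Biotin-hGal-3/hGal-1 300-1000 ng/mL + cpd (DMSO dilutions) on ASF-coated plate, 3 h 4° C; wash; SA-HRP 80 ng/mL 1 h 4° C; wash; ABTS. IC50 = mean of several runs. hGal-1 preferably Cys→Ser (all six) mutant.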
Sequence of human Gal-3 (hGal-3) (P17931 whole entry): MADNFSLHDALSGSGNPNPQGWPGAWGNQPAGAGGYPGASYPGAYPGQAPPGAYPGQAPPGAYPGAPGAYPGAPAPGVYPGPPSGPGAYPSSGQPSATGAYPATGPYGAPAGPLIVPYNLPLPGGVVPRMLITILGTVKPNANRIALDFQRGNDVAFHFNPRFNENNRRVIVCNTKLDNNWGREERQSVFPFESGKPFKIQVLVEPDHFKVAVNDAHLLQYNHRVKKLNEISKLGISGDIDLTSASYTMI
Turning to `CO[C@@H]1[C@@H](n2cc(-c3cc(F)c(Cl)c(Cl)c3)nn2)[C@@H](O)[C@@H](CO)O[C@H]1C(=O)N(c1cc(Cl)cc(C#N)c1)[C@@H]1CC[C@H]1O` [Example 2.17.4R, (2R,3R,4S,5R,6R)-N-(3-chloro-5-cyanophenyl)-4-(4-(3,4-dichloro-5-fluorophenyl)-1H-1,2,3-triazol-1-yl)-5-hydroxy-N-((1R,2R)-2-hydroxycyclobutyl)-6-(hydroxymethyl)-3-methoxytetrahydro-2H-pyran-2-carboxamide], the IC50 worked out at 224 nM.

The compound `CO[C@@H]1[C@@H](n2cc(-c3cc(F)c(F)c(F)c3)nn2)[C@@H](O)[C@@H](CO)O[C@H]1C(=O)N(c1cc(Cl)cc(Cl)c1)[C@H]1CC[C@@H]1O` [Example 2.1.2, (2R,3R,4S,5R,6R)-N-(3,5-dichlorophenyl)-5-hydroxy-N-((1S,2S)-2-hydroxycyclobutyl)-6-(hydroxymethyl)-3-methoxy-4-(4-(3,4,5-trifluorophenyl)-1H-1,2,3-triazol-1-yl)tetrahydro-2H-pyran-2-carboxamide] yielded an IC50 of 51.8 nM.

Compound `CO[C@@H]1[C@@H](n2cc(-c3cc(F)c(F)c(F)c3)nn2)[C@@H](O)[C@@H](CO)O[C@H]1C(=O)N(c1cccc(Cl)c1)[C@@H]1CC[C@H]1O` [Example 2.1.1R, (2R,3R,4S,5R,6R)-N-(3-chlorophenyl)-5-hydroxy-N-((1R,2R)-2-hydroxycyclobutyl)-6-(hydroxymethyl)-3-methoxy-4-(4-(3,4,5-trifluorophenyl)-1H-1,2,3-triazol-1-yl)tetrahydro-2H-pyran-2-carboxamide] displayed an IC50 of 4400 nM.

`CC(=O)O[C@@H]1[C@@H](n2cc(-c3cc(F)c(Cl)c(F)c3)nn2)[C@@H](O)[C@@H](CO)O[C@H]1C(=O)N(c1cc(Cl)cc(C#N)c1)[C@H]1CCC[C@@H]1O` [Example 1A.5.4, (2R,3R,4S,5R,6R)-4-(4-(4-chloro-3,5-difluorophenyl)-1H-1,2,3-triazol-1-yl)-2-((3-chloro-5-cyanophenyl)((1S,2S)-2-hydroxycyclopentyl)carbamoyl)-5-hydroxy-6-(hydroxymethyl)tetrahydro-2H-pyran-3-yl acetate] yielded a half-maximal inhibitory concentration (IC50) of 16.4 nM. This IC50 lies about 270-fold lower than the previous one.

Consider `COc1cc(-c2cn([C@H]3[C@@H](O)[C@@H](CO)O[C@@H](C(=O)N(c4cc(Br)cc(Br)c4)[C@@H]4CC[C@H]4O)[C@@H]3OC)nn2)cc(F)c1F` [Example 2.3.11R, (2R,3R,4S,5R,6R)-N-(3,5-dibromophenyl)-4-(4-(3,4-difluoro-5-methoxyphenyl)-1H-1,2,3-triazol-1-yl)-5-hydroxy-N-((1R,2R)-2-hydroxycyclobutyl)-6-(hydroxymethyl)-3-methoxytetrahydro-2H-pyran-2-carboxamide], for which the concentration for half-maximal inhibition (IC50) came to 258 nM. This IC50 lies about 16-fold higher than the previous one.

As to `CO[C@@H]1[C@@H](n2cc(-c3cc(F)c(F)c(F)c3)nn2)[C@@H](O)[C@@H](CO)O[C@H]1C(=O)N(c1cc(Cl)cc(C#N)c1)[C@@H]1CC[C@H]1O` [Example 2.1.4R, (2R,3R,4S,5R,6R)-N-(3-chloro-5-cyanophenyl)-5-hydroxy-N-((1R,2R)-2-hydroxycyclobutyl)-6-(hydroxymethyl)-3-methoxy-4-(4-(3,4,5-trifluorophenyl)-1H-1,2,3-triazol-1-yl)tetrahydro-2H-pyran-2-carboxamide], the IC50 came to 390 nM.

In turn, `COc1cc(-c2cn([C@H]3[C@@H](O)[C@@H](CO)O[C@@H](C(=O)N(c4cc(Br)cc(Br)c4)[C@H]4CC[C@@H]4O)[C@@H]3OC)nn2)cc(F)c1F` [Example 2.3.11, (2R,3R,4S,5R,6R)-N-(3,5-dibromophenyl)-4-(4-(3,4-difluoro-5-methoxyphenyl)-1H-1,2,3-triazol-1-yl)-5-hydroxy-N-((1S,2S)-2-hydroxycyclobutyl)-6-(hydroxymethyl)-3-methoxytetrahydro-2H-pyran-2-carboxamide] displayed an IC50 of 113 nM.

`CO[C@@H]1[C@@H](n2cc(-c3ccc(Cl)c(Cl)c3)nn2)[C@@H](O)[C@@H](CO)O[C@H]1C(=O)N(c1cc(Cl)cc(C#N)c1)[C@@H]1CC[C@H]1O` [Example 2.8.4R, (2R,3R,4S,5R,6R)-N-(3-chloro-5-cyanophenyl)-4-(4-(3,4-dichlorophenyl)-1H-1,2,3-triazol-1-yl)-5-hydroxy-N-((1R,2R)-2-hydroxycyclobutyl)-6-(hydroxymethyl)-3-methoxytetrahydro-2H-pyran-2-carboxamide] registered an IC50 of 401 nM. Compared with the last compound, the IC50 is about 3.5-fold higher.

Compound `CO[C@@H]1[C@@H](n2cc(-c3cc(F)c(F)c(F)c3)nn2)[C@@H](O)[C@@H](CO)O[C@H]1C(=O)N(c1cc(C)cc(Br)c1)[C@@H]1CCC[C@H]1O` [Example 1.1.12R, (2R,3R,4S,5R,6R)-N-(3-bromo-5-methylphenyl)-5-hydroxy-N-((1R,2R)-2-hydroxycyclopentyl)-6-(hydroxymethyl)-3-methoxy-4-(4-(3,4,5-trifluorophenyl)-1H-1,2,3-triazol-1-yl)tetrahydro-2H-pyran-2-carboxamide] showed a half-maximal inhibitory concentration (IC50) of 348 nM.

`CO[C@@H]1[C@@H](n2cc(-c3cccc(F)c3)nn2)[C@@H](O)[C@@H](CO)O[C@H]1C(=O)N(c1cc(Cl)cc(C#N)c1)[C@H]1CCC[C@@H]1O` [Example 1.15.4, (2R,3R,4S,5R,6R)-N-(3-chloro-5-cyanophenyl)-4-(4-(3-fluorophenyl)-1H-1,2,3-triazol-1-yl)-5-hydroxy-N-((1S,2S)-2-hydroxycyclopentyl)-6-(hydroxymethyl)-3-methoxytetrahydro-2H-pyran-2-carboxamide] gave an IC50 of 54 nM.

Turning to `CO[C@@H]1[C@@H](n2cc(-c3ccc(C#N)c(F)c3)nn2)[C@@H](O)[C@@H](CO)O[C@H]1C(=O)N(c1cc(C)cc(C#N)c1)[C@@H]1CCC[C@H]1O` [Example 1.16.8R, (2R,3R,4S,5R,6R)-4-(4-(4-cyano-3-fluorophenyl)-1H-1,2,3-triazol-1-yl)-N-(3-cyano-5-methylphenyl)-5-hydroxy-N-((1R,2R)-2-hydroxycyclopentyl)-6-(hydroxymethyl)-3-methoxytetrahydro-2H-pyran-2-carboxamide], the IC50 amounted to 1260 nM.

`CO[C@@H]1[C@@H](n2cc(-c3cc(F)c(Br)c(F)c3)nn2)[C@@H](O)[C@@H](CO)O[C@H]1C(=O)N(c1cc(F)cc(C#N)c1)[C@@H]1CC[C@H]1O` [Example 2.6.7R, (2R,3R,4S,5R,6R)-4-(4-(4-bromo-3,5-difluorophenyl)-1H-1,2,3-triazol-1-yl)-N-(3-cyano-5-fluorophenyl)-5-hydroxy-N-((1R,2R)-2-hydroxycyclobutyl)-6-(hydroxymethyl)-3-methoxytetrahydro-2H-pyran-2-carboxamide] returned a concentration for half-maximal inhibition (IC50) of 359 nM.

The compound `COc1cc(C#N)cc(N(C(=O)[C@@H]2O[C@H](CO)[C@H](O)[C@H](n3cc(-c4cc(F)cc(Br)c4)nn3)[C@H]2OC)[C@H]2CC[C@@H]2O)c1` [Example 2.10.9, (2R,3R,4S,5R,6R)-4-(4-(3-bromo-5-fluorophenyl)-1H-1,2,3-triazol-1-yl)-N-(3-cyano-5-methoxyphenyl)-5-hydroxy-N-((1S,2S)-2-hydroxycyclobutyl)-6-(hydroxymethyl)-3-methoxytetrahydro-2H-pyran-2-carboxamide] came in with an IC50 of 224 nM.

For `CO[C@@H]1[C@@H](n2cc(-c3ccc(C#N)c(F)c3)nn2)[C@@H](O)[C@@H](CO)O[C@H]1C(=O)N(c1cc(Cl)cc(C#N)c1)[C@H]1CCC[C@@H]1O` [Example 1.16.4, (2R,3R,4S,5R,6R)-N-(3-chloro-5-cyanophenyl)-4-(4-(4-cyano-3-fluorophenyl)-1H-1,2,3-triazol-1-yl)-5-hydroxy-N-((1S,2S)-2-hydroxycyclopentyl)-6-(hydroxymethyl)-3-methoxytetrahydro-2H-pyran-2-carboxamide], the IC50 was determined as 102 nM.
